From patent publication US20260226049A1, “NITROGEN-CONTAINING HETEROCYCLIC COMPOUND, PREPARATION METHOD THEREFOR, AND USE THEREOF” (BIVISION PHARMACEUTICALS, INC, priority 2023, published 2026)
Where two headings read alike, the source gives them in different places.

Experiments:
[1] = tested on: HT1080 cell line with high FAP expression; experiment: Therapeutic experiment of ^177Lu-labeled compounds in tumor-bearing mice; assay type: in vivo, Balb/c Nude mice; conditions: ^177Lu-labeled compound
Procedure: Balb/c Nude tumor-bearing mice (supplier: Shanghai Alamo Pharmaceutical Technology Co., Ltd., HT1080 cell line with high FAP expression) aged approximately 6-8 weeks were randomly assigned to 13 experimental groups based on tumor volume, with 5 mice per group. Animal body weight and tumor size were measured, and administration was initiated on the grouping day starting with Group 1 (control group: normal saline). General health and appearance were observed daily after the start of the experiment. Animal body weight and tumor size were measured before each sample collection time point. Any abnormal observations detected during the entire study period were required to be recorded in the raw data.
The synthesized compounds were labeled with ^177Lu and subsequently utilized in the therapeutic assay on mouse tumor models. […] Furthermore, no significant changes in mouse body weight (FIG. 8) were observed throughout the experimental period.
• TGI^TV: Relative tumor inhibition rate (TGI^TV): TGI^TV (%)=[1−(Ti−T0)/(Vi−V0)]×100%; • (Ti: average tumor volume of the treatment group on day i of administration, TO: average tumor volume of the treatment group on day 0 of administration; Vi: average tumor volume of the solvent control group on day i of administration, V0: average tumor volume of the solvent control group on day 0 of administration) • T/C: T/C % is one of the most commonly used indicators for tumor response to treatment: T/C %=T/C*100%; • (T represents the average tumor volume of the treatment group at a specific time point; C represents the average tumor volume of the control group at a specific time point.)
The differences between the treatment groups (tumor volumes of the second, third, fourth, and fifth groups) and the control group (tumor volume of the first group) and between the tumor volumes of the first, third, fourth, and fifth groups and the tumor volume of the second group were analyzed using the two-way ANOVA Fisher's LSD test method. P-values less than 0.05 were considered statistically significant. Both statistical significance and biological significance were taken into account during the result analysis.

HT1080 8 #cells = experiment: Cell competitive binding assay against ^177Lu-radiolabeled FAPi-46
Procedure: (1) HT1080 8 #cells in the logarithmic growth phase were prepared into a cell suspension, and the cell density was adjusted to 1×10^4/mL. 1 mL of the suspension was seeded into a 24-well cell culture plate. The plate was incubated overnight in a 37° C. incubator.
(2) The cell culture medium was aspirated, and the cells were washed once with PBS, followed by the addition of 975 μL of additive-free medium.
(3) To each well, 25 µL of ^177Lu-radiolabeled FAPi-46 (Nanchang Tanzhen Biotechnology Co., Ltd., CAS: 2374782-04-2) at a fixed concentration (final concentration in culture medium: 1.35 μCi/mL) and varying concentrations (final concentrations in culture medium: 1000 ng/mL, 100 ng/ml, 10 ng/ml, 1 ng/mL, 0.1 ng/ml, 0.01 ng/mL, 0.001 ng/mL, 0 ng/ml) of unlabeled test compounds JHH8, JHDB8, and JHH9 were added.
(4) The mixture was incubated on ice for 2 hours.
(5) The cells were washed three times with ice-cold PBS.
(6) The cells were lysed with 0.5 mL of 1 M sodium hydroxide, washed twice with 0.5 mL of PBS, and the sodium hydroxide solution (0.5 mL) and PBS solutions (0.5 mL×2) were collected for uptake counting.
The control compound was OncoFAP-DOTAGA (structural formula: […]
The cell competitive binding of compounds JHH5, JHH4, JHH10, JHH8, H4b, H5b, and H8b was tested in the same batch using the above method, and the experimental results are shown in Table 3 and FIG. 3.

## N#C[C@@H]1CC(F)(F)CN1C(=O)CNC(=O)c1cccc2c1CCN(C(=O)CCC(=O)NCCNC(=O)CCC(C(=O)O)N1CCN(CC(=O)O)CCN(CC(=O)O)CCN(CC(=O)O)CC1)C2 (stereo partly drawn) [JHH5]
[1]
  therapeutic effects in mouse tumor model: dose-dependent therapeutic effects
HT1080 8 #cells; EC50 (ng/mL) converted with molecular weight, read-out: EC50
  EC50: 1.82 nM
HT1080 8 #cells; competition with ^177Lu-FAPi-46, on ice 2 hours
  EC50: 1.726 ng/mL
